Tests used:
[1] = target: T1, Type-2 angiotensin II receptor (Homo sapiens, UniProt P50052); assay type: cell-based; settings: cho-k1; also: in other assays of this panel Not Active means under 50% inhibition at 10 µM
T1 sequence (P50052 whole entry): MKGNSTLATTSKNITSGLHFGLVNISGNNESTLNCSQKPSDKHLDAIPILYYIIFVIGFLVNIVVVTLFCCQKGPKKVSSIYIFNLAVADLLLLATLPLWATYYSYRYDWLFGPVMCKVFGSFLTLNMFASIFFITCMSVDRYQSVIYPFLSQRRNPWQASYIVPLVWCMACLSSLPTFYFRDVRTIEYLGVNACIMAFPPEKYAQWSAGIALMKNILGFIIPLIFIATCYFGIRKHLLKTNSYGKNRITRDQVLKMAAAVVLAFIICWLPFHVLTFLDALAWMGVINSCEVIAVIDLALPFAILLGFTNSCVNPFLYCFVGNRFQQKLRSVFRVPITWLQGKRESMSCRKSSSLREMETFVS

[2] = target: Beta-3 adrenergic receptor (Homo sapiens, UniProt P13945); assay: DRUGMATRIX: Adrenergic beta3 radioligand binding (ligand: [125I] Cyanopindolol); assay type: cell membranes, HEK293, Membrane; settings: hek293; Not Active = under 50% inhibition at 10 µM
[3] = DRUGMATRIX: Phosphodiesterase PDE3 enzyme inhibition (substrate: [3H]cAMP + cAMP); assay type: tissue-based, Homo sapiens; settings: platelet; Not Active = under 50% inhibition at 10 µM
[4] = target: T2, Alpha-2A adrenergic receptor (Homo sapiens, UniProt P08913); assay type: cell membranes, Sf9, Membrane; settings: sf9; also: in other assays of this panel Not Active means under 50% inhibition at 10 µM
T2 sequence (P08913 whole entry): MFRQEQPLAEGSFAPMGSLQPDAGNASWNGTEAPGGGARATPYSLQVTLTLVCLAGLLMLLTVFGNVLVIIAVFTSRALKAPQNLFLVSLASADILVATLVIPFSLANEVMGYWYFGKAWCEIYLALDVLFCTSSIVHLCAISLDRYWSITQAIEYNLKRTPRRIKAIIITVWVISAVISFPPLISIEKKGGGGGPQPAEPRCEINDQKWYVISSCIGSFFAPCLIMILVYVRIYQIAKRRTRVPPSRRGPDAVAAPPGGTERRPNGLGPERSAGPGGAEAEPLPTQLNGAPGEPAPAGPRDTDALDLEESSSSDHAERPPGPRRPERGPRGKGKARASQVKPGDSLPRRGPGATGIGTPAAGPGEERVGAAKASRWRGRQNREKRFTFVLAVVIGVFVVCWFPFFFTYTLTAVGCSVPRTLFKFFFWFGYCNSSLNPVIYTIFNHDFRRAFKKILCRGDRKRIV

[5] = target: T3, Receptor-type tyrosine-protein phosphatase C (Homo sapiens, UniProt P08575); set-up: species or system Escherichia coli;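 also: inhibition of CD45 enzyme activity measured using DiFMUP as substrate; in other assays of this panel Not Active means under 50% inhibition at 10 µM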
T3 sequence (P08575 whole entry): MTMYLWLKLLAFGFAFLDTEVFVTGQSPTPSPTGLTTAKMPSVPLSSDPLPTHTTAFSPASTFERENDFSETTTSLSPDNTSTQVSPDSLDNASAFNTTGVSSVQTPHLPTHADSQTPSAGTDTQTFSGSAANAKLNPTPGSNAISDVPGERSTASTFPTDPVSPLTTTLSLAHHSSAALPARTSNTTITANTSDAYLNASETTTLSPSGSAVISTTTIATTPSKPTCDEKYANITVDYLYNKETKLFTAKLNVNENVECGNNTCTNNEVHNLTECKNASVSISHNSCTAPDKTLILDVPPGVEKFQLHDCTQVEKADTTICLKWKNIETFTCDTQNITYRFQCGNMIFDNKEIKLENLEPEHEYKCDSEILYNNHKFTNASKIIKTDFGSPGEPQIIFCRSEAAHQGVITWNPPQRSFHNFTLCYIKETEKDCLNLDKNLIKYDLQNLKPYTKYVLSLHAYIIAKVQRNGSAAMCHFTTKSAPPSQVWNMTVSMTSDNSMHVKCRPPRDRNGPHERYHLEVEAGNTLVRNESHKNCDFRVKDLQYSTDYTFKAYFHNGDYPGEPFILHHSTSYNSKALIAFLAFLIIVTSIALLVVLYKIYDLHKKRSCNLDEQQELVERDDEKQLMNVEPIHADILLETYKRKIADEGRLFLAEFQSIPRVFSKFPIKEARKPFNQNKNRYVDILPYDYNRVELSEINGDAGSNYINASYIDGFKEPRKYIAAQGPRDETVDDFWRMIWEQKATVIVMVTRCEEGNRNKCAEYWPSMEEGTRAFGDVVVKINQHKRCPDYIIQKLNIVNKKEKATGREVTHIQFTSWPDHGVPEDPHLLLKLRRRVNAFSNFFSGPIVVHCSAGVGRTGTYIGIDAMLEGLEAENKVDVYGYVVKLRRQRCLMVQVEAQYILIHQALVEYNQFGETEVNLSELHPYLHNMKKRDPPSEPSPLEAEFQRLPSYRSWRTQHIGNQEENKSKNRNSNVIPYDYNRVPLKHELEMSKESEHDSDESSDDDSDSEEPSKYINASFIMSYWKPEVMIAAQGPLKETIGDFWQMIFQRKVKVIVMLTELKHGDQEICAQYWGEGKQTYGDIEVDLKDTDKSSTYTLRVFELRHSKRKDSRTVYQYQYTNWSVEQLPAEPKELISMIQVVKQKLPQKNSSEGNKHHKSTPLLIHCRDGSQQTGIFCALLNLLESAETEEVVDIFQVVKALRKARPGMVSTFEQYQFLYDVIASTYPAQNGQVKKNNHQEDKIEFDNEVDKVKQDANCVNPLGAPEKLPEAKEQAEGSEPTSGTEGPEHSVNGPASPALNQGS

[6] = DRUGMATRIX: GABAA, Flunitrazepam, Central radioligand binding (ligand: [3H] Flunitrazepam); assay type: cell membranes, Rattus norvegicus, Wistar, Brain, Membrane; settings: Not Active = under 50% inhibition at 10 µM

Chain of Beta-3 adrenergic receptor (P13945 whole entry): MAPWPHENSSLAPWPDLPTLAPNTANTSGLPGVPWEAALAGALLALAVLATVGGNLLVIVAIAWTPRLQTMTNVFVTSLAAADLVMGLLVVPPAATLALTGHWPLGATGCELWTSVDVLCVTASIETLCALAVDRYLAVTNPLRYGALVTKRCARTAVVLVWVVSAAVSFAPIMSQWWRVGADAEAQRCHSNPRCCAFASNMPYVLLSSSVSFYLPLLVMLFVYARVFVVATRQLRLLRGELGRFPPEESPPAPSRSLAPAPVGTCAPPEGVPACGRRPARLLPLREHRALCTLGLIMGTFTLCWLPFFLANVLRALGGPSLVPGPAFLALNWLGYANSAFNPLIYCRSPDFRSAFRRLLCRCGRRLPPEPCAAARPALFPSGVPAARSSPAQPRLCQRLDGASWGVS

OCCO [ETHYLENE GLYCOL]
Not Active: IC50 [1] | IC50 [2] | IC50 [3] | Ki [3] | IC50 [4] | IC50 [5] | IC50 [6] | Ki [6]

CC(=O)OCC(CCn1cnc2cnc(N)nc21)COC(C)=O [FAMCICLOVIR]
Not Active: IC50 [1] | IC50 [2] | IC50 [3] | Ki [3] | IC50 [4] | IC50 [5] | IC50 [6] | Ki [6]

O=C(O)Cc1ccc(-c2ccccc2)cc1 [FELBINAC]
Not Active: IC50 [1] | IC50 [2] | IC50 [3] | Ki [3] | IC50 [4] | IC50 [5] | IC50 [6] | Ki [6]

CCOC(=O)C1=C(C)NC(C)=C(C(=O)OC)C1c1cccc(Cl)c1Cl (stereo not drawn) [FELODIPINE]
Not Active: IC50 [1] | IC50 [2] | IC50 [3] | Ki [3] | IC50 [4] | IC50 [5] | IC50 [6] | Ki [6]

CC(C(=O)O)c1ccc(-c2ccccc2)c(F)c1 (stereo not drawn) [FLURBIPROFEN]
Not Active: IC50 [1] | IC50 [2] | IC50 [3] | Ki [3] | IC50 [4] | IC50 [5] | IC50 [6] | Ki [6]

Cc1cn[nH]c1 [FOMEPIZOLE]
Not Active: IC50 [1] | IC50 [2] | IC50 [3] | Ki [3] | IC50 [4] | IC50 [5] | IC50 [6] | Ki [6]

NC[C@@H]1O[C@H](O[C@H]2[C@@H](O)[C@H](O[C@@H]3[C@@H](O)[C@H](N)C[C@H](N)[C@H]3O[C@H]3O[C@H](CN)[C@@H](O)[C@H](O)[C@H]3N)O[C@@H]2CO)[C@H](N)[C@@H](O)[C@@H]1O [FRAMYCETIN]
Not Active: IC50 [1] | IC50 [2] | IC50 [3] | Ki [3] | IC50 [4] | IC50 [5] | IC50 [6] | Ki [6]

C[C@H]([C@](O)(Cn1cncn1)c1ccc(F)cc1F)S(C)(=O)=O [GENACONAZOLE]
Not Active: IC50 [1] | IC50 [2] | IC50 [3] | Ki [3] | IC50 [4] | IC50 [5] | IC50 [6] | Ki [6]

Cc1c(F)c(N2CCNC(C)C2)cc2c1c(=O)c(C(=O)O)cn2C1CC1 (stereo not drawn) [GREPAFLOXACIN]
Not Active: IC50 [1] | IC50 [2] | IC50 [3] | Ki [3] | IC50 [4] | IC50 [5] | IC50 [6] | Ki [6]

COc1ccccc1OCC(O)CO (stereo not drawn) [GUAIFENESIN]
Not Active: IC50 [1] | IC50 [2] | IC50 [3] | Ki [3] | IC50 [4] | IC50 [5] | IC50 [6] | Ki [6]

C[C@]12CCC(=O)C=C1CC[C@@H]1[C@@H]2[C@@H](O)C[C@@]2(C)[C@H]1CC[C@]2(O)C(=O)CO [HYDROCORTISONE]
Not Active: IC50 [1] | IC50 [2] | IC50 [3] | Ki [3] | IC50 [4] | IC50 [5] | IC50 [6] | Ki [6]

C/C=C\c1ccc(O)c(OC)c1 [ISOEUGENOL]
Not Active: IC50 [1] | IC50 [2] | IC50 [3] | Ki [3] | IC50 [4] | IC50 [5] | IC50 [6] | Ki [6]

NC[C@H]1O[C@H](O[C@H]2[C@H](O)[C@@H](O[C@H]3O[C@H](CO)[C@@H](O)[C@H](N)[C@H]3O)[C@H](N)C[C@@H]2N)[C@H](O)[C@@H](O)[C@@H]1O [KANAMYCIN]
Not Active: IC50 [1] | IC50 [2] | IC50 [3] | Ki [3] | IC50 [4] | IC50 [5] | IC50 [6] | Ki [6]

CC[C@H](C)C(=O)O[C@H]1C[C@@H](C)C=C2C=C[C@H](C)[C@H](CC[C@@H]3C[C@@H](O)CC(=O)O3)[C@H]21 [LOVASTATIN]
Not Active: IC50 [1] | IC50 [2] | IC50 [3] | Ki [3] | IC50 [4] | IC50 [5] | IC50 [6] | Ki [6]

CC(C(=O)O)c1ccc(CC2CCCC2=O)cc1 (stereo not drawn) [LOXOPROFEN]
Not Active: IC50 [1] | IC50 [2] | IC50 [3] | Ki [3] | IC50 [4] | IC50 [5] | IC50 [6] | Ki [6]

Cc1cccc(Nc2ccccc2C(=O)O)c1C [MEFENAMIC ACID]
Not Active: IC50 [1] | IC50 [2] | IC50 [3] | Ki [3] | IC50 [4] | IC50 [5] | IC50 [6] | Ki [6]
